In assay [1] the target is T1, human ALK5 (ALK5 T204D kinase domain) (Homo sapiens, UniProt P36897, T204D).
T1 construct: The kinase domain of human ALK5 (amino acids 200-503) is fused to an N-terminal histidine tag; made in house; host or cells: insect cells (baculovirus)
T1 sequence (P36897 200-503 T204D): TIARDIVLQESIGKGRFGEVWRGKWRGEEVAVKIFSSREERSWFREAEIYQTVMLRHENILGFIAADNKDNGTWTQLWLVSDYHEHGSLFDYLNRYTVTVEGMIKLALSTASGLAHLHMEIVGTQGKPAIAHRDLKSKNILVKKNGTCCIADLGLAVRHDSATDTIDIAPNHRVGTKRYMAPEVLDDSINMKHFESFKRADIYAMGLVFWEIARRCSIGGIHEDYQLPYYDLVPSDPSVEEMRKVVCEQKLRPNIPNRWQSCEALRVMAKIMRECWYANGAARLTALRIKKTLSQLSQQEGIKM
Briefly: ALK5 kinase activity, [33P] phosphate incorporation into casein. Format: biochemical. Conditions: casein substrate. How it is done:
The kinase activity of ALK5 is assessed by measuring radiolabelled phosphate [33P] incorporation in to the generic substrate, casein. The kinase domain of human ALK5 (amino acids 200-503) is fused to an N-terminal histidine tag. The kinase activity of ALK5 is rendered constitutive via point mutation at amino acid 204 (threonine to aspartate modification, ALK5 T204D) and the kinase construct is engineered to be expressed from a baculovirus expression construct in insect cells. The purified, recombinantly-expressed histidine-tagged ALK5 T204D protein is dissolved at 5.4 mg/ml in 50 mM Tris-HCl pH 8.0, 150 mM NaCl, 5 mM DTT. ALK5 T204D is dissolved to 2.5 μg/ml in assay buffer (Assay buffer: 20 mM Tris-HCl pH 7.4, 10 mM MgCl2, 2 mM MnCl2) on the day of use.
Test compounds and reference compounds are dissolved in assay buffer without DTT containing 5% (v/v) DMSO. Stock solutions of test and reference compounds are diluted in assay buffer with DTT (1.25 mM) containing 4.5% (v/v) DMSO. 10 μl of test or reference compound are added to the appropriate wells of 96 well U-bottomed plate. Total enzyme activity is determined by measuring ALK5 T204D activity in the absence of ALK5 kinase inhibitor reference compounds. Non-specific binding (NSB) is determined by measuring the activity of ALK5 T204D in the presence of ALK5 kinase inhibitor reference compounds. 10 μl of dephosphorylated casein stock solution (dephosphorylated casein is dissolved in ddH2O at 20 mg/ml) is added per well (200 μg/well final assay concentration). 20 μl of ALK5 T204D (2.5 μg/ml solution) is added per well (50 ng/well final assay concentration). The plates are left to incubate at room temperature for 10 minutes.
10 μl of ATP mix is added to the well to initiate the reaction (0.66 nM [^33P]ATP/1 μM unlabelled ATP/well final assay concentration). The ATP mix is prepared as follows, unlabelled ATP (3 mM) is dissolved in ddH2O and pH adjusted to 7.4. The stock concentration of [^33P]ATP is 10 μCi/μl. The appropriate volume of [^33P]ATP is added to unlabelled ATP solution such that the final assay concentration per well is 0.1 μCi. Following addition of the ATP mix, the plates are incubated at room temperature for 50 minutes. The kinase reaction is terminated by the addition of 50 μL Stop Buffer (20 mM Tris-HCl pH 7.4, 10 mM EDTA).
75 μl/well from the reaction plate is transferred to a Multiscreen-IP plate (MultiScreen-IP plates are prepared by added 50 μL of 70% (v/v) ethanol per well and incubated for 5 minutes at room temperature. The ethanol is removed by aspiration via a MultiScreen HTS Vacuum Manifold unit (Millipore, Cat no: MSVMHT500). The plates are washed twice by adding 200 μl/well ddH2O). The MultiScreen-IP plate is incubated at room temperature for 30 minutes to allowing binding of casein to the plate. The MultiScreen-IP plates are washed three times by adding 200 μl/well 100 mM phosphoric acid solution and the gasket is carefully removed from the back of the MultiScreen-IP plate and the plate dried in the oven for 30 minutes. The MultiScreen-IP plate is backsealed, 50 μL of Microscint™20 is added, then the plates are topsealed and radiolabelled casein detected and quantified on a TopCount™ plate-reader using the ^33P scintillation protocol.

The target in assay [2] is T2, JAK2 (GST-JAK2(808-1132)) (Homo sapiens, UniProt O60674).
T2 construct: GST-JAK2(808-1132) was purchased from Invitrogen (Carlsbad, USA, #4288); purchased Invitrogen (Carlsbad, USA) #4288
Briefly: JAK/TYK-kinase family profiling, Caliper mobility shift assay. The following applies: 20 μM ATP, JAK3tide substrate. Format: biochemical. An excerpt:
All four kinases of the JAK/TYK-kinase family were used as purified recombinant GST-fusion proteins, containing the active kinase domains. GST-JAK1(866-1154), GST-JAK3(811-1124), and GST-TYK2(888-1187) were expressed and purified by affinity chromatography at the EPK biology unit. GST-JAK2(808-1132) was purchased from Invitrogen (Carlsbad, USA, #4288).
The kinase assays were based on the Caliper mobility shift assay using the LabChip 3000 systems. This technology is similar to capillary electrophoresis and uses charge driven separation of substrate and product in a microfluidic chip.
All kinase reactions were performed in 384 well microtiter plates in a total reaction volume of 18 μl. The assay plates were prepared with 0.1 μl per well of test compound in the appropriate test concentration, as described under the section “preparation of compound dilutions”. The reactions were started by combining 9 μl of substrate mix (consisting of peptide and ATP) with 9 μl of kinase dilution. The reactions were incubated for 60 minutes at 30° C. and stopped by adding 70 μl of stop buffer (100 mM Hepes, 5% DMSO, 0.1% Coating reagent, 10 mM EDTA, 0.015% Brij 35).
Fluorescently labeled synthetic peptides were used as substrates in all reactions. A peptide derived from the sequence of IRS-1 (IRS-1 peptide, FITC-Ahx-KKSRGDYMTMQIG-NH2) was used for JAK1 and TYK2 and a peptide named JAK3tide (FITC-GGEEEEYFELVKKKK-NH2) for JAK2 and JAK3. Specific assay conditions are described in Table 1:
The terminated reactions were transferred to the Caliper LabChip 3000 reader and the turnover of each reaction was measured by determining the substrate/product ratio.
Test compounds were dissolved in DMSO (10 mM) and transferred into 1.4 mL flat bottom or V-shaped Matrix tubes carrying a unique 2D matrix chip by individual compound hubs. The numbers of these chips were distinctively linked to the individual compound identification numbers. The stock solutions were stored at −20° C. if not used immediately. For the test procedure the vials were defrosted and identified by a scanner whereby a working sheet was generated that guided the subsequent working steps.
Compound dilutions were made in 96 well plates. This format enabled the assay of maximally 40 individual test compounds at 8 concentrations (single points) including 4 reference compounds. The dilution protocol included the production of pre-dilution plates, master plates and assay plates:
Pre-dilution plates: 96 polypropylene well plates were used as pre-dilution plates. A total of 4 pre-dilution plates were prepared including 10 test compounds each on the plate positions A1-A10, one standard compound at A11 and one DMSO control at A12. All dilution steps were done on a HamiltonSTAR robot. Master plates: 100 μL of individual compound dilutions including standard compound and controls of the 4 “pre-dilution plates” were transferred into a 384 “master plate” including the following concentrations 1′820, 564, 182, 54.6, 18.2, 5.46, 1.82 and 0.546 μM, respectively in 90% of DMSO. Assay plates: Identical assay plates were then prepared by pipetting […] each of compound dilutions of the master plates into 384-well “assay plates”. In the following the compounds were mixed with 9 μL of assays components plus 9 μL enzyme corresponding to a 1:181 dilution steps enabling the final concentration of 10, 3.0, 1.0, 0.3, 0.1, 0.03, 0.01 and 0.003 μM, respectively. The preparation of the master plates were handled by the Matrix PlateMate Plus robot and replication of assay plates by the HummingBird robot.

Assay [3] relates to bleomycin-induced pulmonary fibrosis. Conditions: bleomycin-treated rats; cited from earlier work.

We go through 14 molecules from patent US20100041662A1, “Heterocyclic compounds as antiinflammatory agents” (priority 2006, published 2010).

T2 sequence (O60674 808-1132): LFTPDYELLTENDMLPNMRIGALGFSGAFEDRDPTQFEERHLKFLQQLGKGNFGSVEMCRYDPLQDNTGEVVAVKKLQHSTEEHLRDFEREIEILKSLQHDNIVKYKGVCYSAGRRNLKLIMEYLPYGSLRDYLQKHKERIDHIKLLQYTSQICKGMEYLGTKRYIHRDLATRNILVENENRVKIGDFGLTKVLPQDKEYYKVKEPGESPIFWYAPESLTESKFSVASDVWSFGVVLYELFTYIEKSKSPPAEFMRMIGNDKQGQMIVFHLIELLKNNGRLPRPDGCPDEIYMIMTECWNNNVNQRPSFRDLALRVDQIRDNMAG

On to `O[C@H]1CC[C@H](Nc2ccc3ncc(-c4ccnc(-c5ccncc5)c4)n3n2)CC1` [Example 1.1, 4-(3-[2,4′]Bipyridinyl-4-yl-imidazo[1,2-b]pyridazin-6-ylamino)-cyclohexanol], for which the IC50 (usually the midpoint of a concentration-inhibition curve) in assay [1] was determined as 42 nM.

`Cc1ccc(-c2cc(-c3cnc4ccc(NC5CCC(O)CC5)nn34)ccn2)s1` (stereo not drawn) [Example 1.2, 4-{3-[2-(5-Methyl-thiophen-2-yl)-pyridin-4-yl]-imidazo[1,2-b]pyridazin-6-ylamino}-cyclohexanol]: the concentration for half-maximal inhibition (IC50) in assay [1] stood at 36 nM.

For `OC1CCC(Nc2ccc3ncc(-c4ccnc(-c5ccoc5)c4)n3n2)CC1` (stereo not drawn) [Example 1.3, 4-[3-(2-Furan-3-yl-pyridin-4-yl)-imidazo[1,2-b]pyridazin-6-ylamino]-cyclohexanol], the half-maximal inhibitory concentration (IC50) in assay [1] was found to be 5 nM.

In the case of `Cn1cc(-c2cc(-c3cnc4ccc(NC5CCC(O)CC5)nn34)ccn2)cn1` (stereo not drawn) [Example 1.4, 4-{3-[2-(1-Methyl-1H-pyrazol-4-yl)-pyridin-4-yl]-imidazo[1,2-b]pyridazin-6-ylamino}-cyclohexanol], in assay [1], 150 nM corresponded to half-maximal inhibition (IC50).

In turn, `OC1CCC(Nc2ccc3ncc(-c4ccnc(C5CC5)c4)n3n2)CC1` (stereo not drawn) [Example 1.6, 4-[3-(2-Cyclopropyl-pyridin-4yl)-imidazo[1,2-b]pyridazin-6-ylamino]-cyclohexanol] registered an IC50 in assay [1] of 15 nM.

Take `OC1CCC(Nc2ccc3ncc(-c4cccc(-n5cccn5)c4)n3n2)CC1` (stereo not drawn) [Example 1.7, 4-[3-(3-Pyrazol-1-yl-phenyl)-imidazo[1,2-b]pyridazin-6-ylamino]-cyclohexanol]: inhibition in assay [1] was half-maximal at 5 nM (IC50).

Turning to `CN1CCN(C(=O)c2ccc(-c3cnc4ccc(NCc5cc(F)ccc5F)nn34)cc2)CC1` [Example 2.1, {4-[6-(2,5-Difluoro-benzylamino)-imidazo[1,2-b]pyridazin-3-yl]-phenyl}-(4-methyl-piperazin-1-yl)-methanone], the IC50 in assay [2] stood at 16 nM.

As to `O=C(NCCN1CCOCC1)c1ccc(-c2cnc3ccc(NCc4cc(F)ccc4F)nn23)cc1` [Example 2.2, 4-[6(2,5-Difluorobenzylamino)-imidazo[1,2-b]pyridazin-3-yl]-N-(2-morpholin-4-yl-ethyl)benzamide], the IC50 in assay [2] was found to be 8 nM.

Regarding `CN(C)C1CCN(C(=O)c2ccc(-c3cnc4ccc(NCc5cc(F)ccc5F)nn34)cc2)CC1` [Example 2.3, {4-[6-(2,5-Difluorobenzylamino)-imidazo[1,2-b]pyridazin-3-yl]-phenyl}-(4-dimethylamino-piperidin-1-yl)-methanone], the IC50 in assay [2] stood at 14 nM.

On to `O=C(c1ccc(-c2cnc3ccc(NCc4cc(F)ccc4F)nn23)cc1)N1CCOCC1` [Example 2.4, {4-[6-(2,5-Difluoro-benzylamino)-imidazo[1,2-b]pyridazin-3-yl]-phenyl}-morpholin-4-yl-methanone], for which the IC50 in assay [2] is 20 nM.

Consider `O=C(NC1CCOCC1)c1cccc(-c2cnc3ccc(NCc4cc(F)ccc4F)nn23)c1` [Example 2.5], for which the IC50 in assay [2] came to 21 nM.

As for `CCN1CCCC1CNC(=O)c1ccc(-c2cnc3ccc(NCc4cc(F)ccc4F)nn23)cc1` (stereo not drawn) [Example 2.6, 4-[6-(2,5-Difluoro-benzylamino)-imidazo[1,2-b]pyridazin-3-yl]-N-(1-ethyl-pyrrolidin-2-ylmethyl)-benzamide], the IC50 in assay [2] was 11 nM.

Consider `O=C(NC1CCOCC1)c1ccc(-c2cnc3ccc(NCc4cc(F)ccc4F)nn23)cc1` [Example 2.7, 4-[6-(2,5-Difluorobenzylamino)-imidazo[1,2-b]pyridazin-3-yl]-N-(tetrahydro-pyran-4-yl)-benzamide], for which the IC50 in assay [2] came to 13 nM.

B1: follistatin: an antagonist of activin signalling (protein, UniProt P19883 30-344, looked up)
Follistatin: GNCWLRQAKNGRCQVLYKTELSKEECCSTGRLSTSWTEEDVNDNTLFKWMIFNGGAPNCIPCKETCENVDCGPGKKCRMNKKNKPRCVCAPDCSNITWKGPVCGLDGKTYRNECALLKARCKEQPELEVQYQGRCKKTCRDVFCPGSSTCVVDQTNNAYCVTCNRICPEPASSEQYLCGNDGVTYSSACHLRKATCLLGRSIGLAYEGKCIKAKSCEDIQCTGGKKCLWDFKVGRGRCSLCDELCPDSKSDEPVCASDNATYASECAMKEAACSSGVLLEVKHSGSCNSISEDTEEEEEDEDQDYSFPISSILEW
For B1, in assay [3], the “destruction of lung architecture” value is “ameliorated”; the lung fibrosis result is given as “attenuated”; the “number of infiltrating cells” value is listed as “markedly reduced”; the “number of macrophages and neutrophils in bronchoalveolar lavage” value is “significantly reduced”. Also, the “protein content of bronchoalveolar lavage” value in assay [3] is reported as “reduced the protein content”.
